Reference: patent publication US9925263B2, “Liquid pharmaceutical formulations for injection comprising procaine and uses thereof” (EAGLE BIOLOGICS, INC., priority 2013, dated 2018)
Counter-ions that a name gives are not always drawn. Blank lines part the entries; values can stand above or below the compound they belong to.

Columns and labels:
biosimilar ERBITUX® = test: Viscosity of aqueous solutions of biosimilar ERBITUX® with viscosity-lowering agents; details: 25° C.; for Fold Reduction: vs phosphate buffer
Experimental: All viscosities of well-mixed aqueous mAb solutions were measured using either a mVROC microfluidic viscometer (RheoSense) or a DV2T cone and plate viscometer (Brookfield; “C & P”) after a 5 minute equilibration at 25° C. (unless otherwise indicated). The mVROC viscometer was equipped with an “A” or “B” chip, each manufactured with a 50 micron channel. Typically, 0.10 mL of protein solution was back-loaded into a gastight microlab instrument syringe (Hamilton; 100 μL), affixed to the chip, and measured at multiple flow rates, approximately 20%, 40%, and 60% of the maximum pressure for each chip. […] An average absolute viscosity and standard deviation was then calculated from at least these three measurements. The C & P viscometer was equipped with a CPE40 or CPE52 spindle (cone angle of 0.8° and 3.0°, respectively) and 0.50 mL samples were measured at multiple shear rates between 2 and 400 s^−1. […] An extrapolated zero-shear viscosity was then determined from a plot of dynamic viscosity versus shear rate for the samples measured on a DV2T cone and plate viscometer. The extrapolated zero-shear viscosities reported are the average and standard deviation of at least three measurements.
First, Polysorbate 80 was removed using DETERGENT-OUT® TWEEN® Medi Columns (G-Biosciences). […] The collected protein solution was freeze-dried. The dried protein cakes, containing protein and buffer salts or agent, were reconstituted to a final volume of 0.15-1.3 mL. […] Reported protein concentrations represent the range of all protein samples included in each Table or Figure. Specifically, reported values are the median plus or minus half the range. Extrapolated zero-shear using an experimentally determined extinction coefficient of 1.4 L/g·cm and viscosities reported were measured on a DV2T cone and plate viscometer.
The final concentration of CSAL upon reconstitution in an aqueous CSAL solution ranged from 0.25 M to 0.50 M.
Specifically, 20 mM solutions of the viscosity-lowering agents of interest were used for buffer exchange, and the lyophilized cakes were reconstituted to 0.25 M of each viscosity-lowering agent. […] The sample was first aliquoted. […] The dried protein cakes, containing protein and viscosity-lowering agent (and a negligible amount of buffer salts) were reconstituted to a final volume of approximately 0.10 mL and viscosity-lowering agent concentration as previously described.
First, Polysorbate was removed from the commercially obtained mAb solutions.
Specifically, 20 mM solutions of the salts of interest were used for buffer exchange, and the lyophilized cakes were reconstituted to contain 0.25 M of each agent. Viscosities were measured using either a RheoSense mVROC microfluidic viscometer equipped with an “A” or “B” chip or a DV2T cone and plate viscometer.
(§2) Subsequently, the aqueous drug product was purified, buffer exchanged, concentrated, dried, reconstituted, and analyzed as described in the same manner. Viscosities reported were measured on a RheoSense mVROC microfluidic viscometer.

biosimilar AVASTIN® = test: Viscosity of aqueous solutions of biosimilar AVASTIN® with viscosity-lowering agents; format: physicochemical
Experimental: (§1) (unless otherwise indicated).
The protein was formulated to contain either 0.25 M phosphate buffer or 0.25 M CSAL.
Subsequently, the appropriate amount of viscosity-lowering agent was added to result in a final viscosity-lowering agent concentration of 0.15-0.35 M upon reconstitution.
The viscosity-lowering agent(s) were added in an amount sufficient to give concentration upon reconstitution as specified below. In cases of combinations of agents, the concentration of each component is 0.15 M. The protein solutions were then freeze-dried.

biosimilar RITUXAN® = test: Viscosity of aqueous solutions of biosimilar RITUXAN® with viscosity-lowering agents; details: 25° C.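 Note: absolute viscosity of aqueous antibody solutions determined by microfluidic viscometry (mVROC chip, 50 micron channel) at several flow rates after 5 min equilibration, mean of at least three readings.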
Experimental: All viscosities of well-mixed aqueous mAb solutions were measured using either a mVROC microfluidic viscometer (RheoSense) or a DV2T cone and plate viscometer (Brookfield; “C & P”) after a 5 minute equilibration at 25° C. […] The mVROC viscometer was equipped with an “A” or “B” chip, each manufactured with a 50 micron channel. Typically, 0.10 mL of protein solution was back-loaded into a gastight microlab instrument syringe (Hamilton; 100 μL), affixed to the chip, and measured at multiple flow rates, approximately 20%, 40%, and 60% of the maximum pressure for each chip. […] An average absolute viscosity and standard deviation was then calculated from at least these three measurements. The C & P viscometer was equipped with a CPE40 or CPE52 spindle (cone angle of 0.8° and 3.0°, respectively) and 0.50 mL samples were measured at multiple shear rates between 2 and 400 s^−1. […] An extrapolated zero-shear viscosity was then determined from a plot of dynamic viscosity versus shear rate for the samples measured on a DV2T cone and plate viscometer. The extrapolated zero-shear viscosities reported are the average and standard deviation of at least three measurements.
(§3) Viscosities were measured using a RheoSense mVROC microfluidic viscometer equipped with an “A” or “B” chip.

REMICADE® [1] = test: Viscosity of aqueous solutions of […]® with viscosity-lowering agents; format: physicochemical; details: for Viscosity: 25° C.
Experimental: as §1
An extrapolated zero-shear viscosity was determined from a plot of absolute viscosity versus shear rate.
Following reconstitution, the viscosity of each solution was measured using the microfluidic viscometer as described in previous examples. The solutions were then back-loaded into 1 mL BD insulin syringes with 27, 29, or 31 gauge fixed needles. The force required to extrude the concentrated […]® solutions was then measured using an Instron at a rate of displacement equivalent to a fluid flow rate of 3 mL/min. The expelled solution was collected from the syringe and analyzed by size-exclusion chromatography.

HERCEPTIN® = test: Viscosity of aqueous solutions of HERCEPTIN® with viscosity-lowering agents; format: physicochemical; details: 25° C.
VECTIBIX® = test: Viscosity of aqueous solutions of VECTIBIX® with viscosity-lowering agents; format: physicochemical; details: 0.25M agent, 25° C., pH 7.0
Text: as §1

TYSABRI® = test: Viscosity of aqueous solutions of TYSABRI® with viscosity-lowering agents; format: physicochemical; details: 25° C.
Experimental: All viscosities of well-mixed aqueous mAb solutions were measured using either a mVROC microfluidic viscometer (RheoSense) or a DV2T cone and plate viscometer (Brookfield; “C & P”) after a 5 minute equilibration at 25° C. […] The mVROC viscometer was equipped with an “A” or “B” chip, each manufactured with a 50 micron channel. Typically, 0.10 mL of protein solution was back-loaded into a gastight microlab instrument syringe (Hamilton; 100 μL), affixed to the chip, and measured at multiple flow rates, approximately 20%, 40%, and 60% of the maximum pressure for each chip. […] An average absolute viscosity and standard deviation was then calculated from at least these three measurements. The C & P viscometer was equipped with a CPE40 or CPE52 spindle (cone angle of 0.8° and 3.0°, respectively) and 0.50 mL samples were measured at multiple shear rates between 2 and 400 s^−1. Specifically, samples were measured for 30 seconds each at 22.58, 24.38, 26.25, 28.13, 30, 31.88, 45, 67.5, 90, 112.5, 135, 157.5, 180, 202.5, 247, 270, 292.5, 315, 337.5, 360, 382, 400 s^−1, starting at a shear rate that gave at least 10% torque, and continuing until instrument torque reached 100%. An extrapolated zero-shear viscosity was then determined from a plot of dynamic viscosity versus shear rate for the samples measured on a DV2T cone and plate viscometer. The extrapolated zero-shear viscosities reported are the average and standard deviation of at least three measurements.
as §3, §2

antigen = test: Antigen binding, […]®-specific ELISA assay; details: 227 mg/mL, pH 7, 0.25M CSAA, storage at 4° C.
Experimental: Biophysical properties of solutions of […]® formulated with 0.25 M CSAA were assessed over 90 days. Samples of […]® formulated with 0.25 M CSAA were prepared as described in Example 1 above. […] (Table 20). Additionally, antigen binding of this processed […]® protein was measured with a […]®-specific ELISA assay and no decrease in binding was seen between days 0 and […] (Table 20).

REMICADE® [2] = test: Monomer content of […]® solutions by size exclusion chromatography; format: physicochemical; details: lyophilized powder (cake containing CSAA) stored at 4° C.; reconstituted after 75 days
[3] = 222 ± 5 mg/mL mAb, pH 7.0, 0.25M agent
[4] = 200 ± 5 mg/mL mAb, pH 7.0, 25° C., [Salt] 0.25 M of anion, C & P viscometer
[5] = 202 ± 2 mg/mL RITUXAN, 0.25M agent, pH 7.0
[6] = 166 ± 4 mg/mL REMICADE, 0.25M agent, pH 7.0
[7] = 222 ± 6 mg/mL REMICADE, 0.25M agent, pH 7.0

Viscosity (biosimilar ERBITUX®; 183 mg/mL mAb, […] agent): 19.7 ± 0.2 cP
Viscosity (biosimilar AVASTIN®; 203 mg/mL mAb, agent […], 25° C.): 53.8 ± 2.4 cP
Viscosity (biosimilar RITUXAN®; 215 mg/mL mAb, […] agent): 49.5 ± 1.2 cP
Compound: CN/C(=N/CCSCc1nc[nH]c1C)NC#N [Cimetidine HCl, reference compound]

Viscosity (biosimilar ERBITUX®; 180 mg/mL mAb, […] agent): 23.0 ± 0.2 cP
Viscosity (biosimilar AVASTIN®; 168 mg/mL mAb, agent […], 25° C.): 37.9 ± 0.6 cP
Viscosity (biosimilar AVASTIN®; 237 mg/mL mAb, agent […], 25° C.): 308 ± 34 cP
Viscosity (biosimilar RITUXAN®; 204 mg/mL mAb, […] agent): 51.2 ± 0.8 cP
Compound: CN1C2CCCC1CC(NC(=O)c1nn(C)c3ccccc13)C2 (stereo not drawn) [Granisetron HCl, reference compound]

Viscosity (biosimilar ERBITUX®; 178 mg/mL mAb, […] agent): 82.1 ± 3.6 cP
Viscosity (biosimilar RITUXAN®; 207 mg/mL mAb, […] agent): 114 ± 7 cP
Compound: CC1(C)S[C@@H]2[C@H](NC(=O)Cc3ccccc3)C(=O)N2[C@H]1C(=O)[O-].[Na+] [Penicillin G sodium salt, reference compound]

Compound: CC1(C)C2CCC1(CS(=O)(=O)O)C(=O)C2 (stereo not drawn) [CSA sodium salt, Camphorsulfonic acid]
Viscosity (biosimilar ERBITUX®; [3]): 393 ± 14 cP
Fold Reduction (biosimilar ERBITUX®; [3]): 2.9 fold
Viscosity (biosimilar AVASTIN®; [4]): 55.7 ± 0.2 cP
Viscosity (biosimilar RITUXAN®; [5]): 76.1 ± 1.3

Compound: sulfosalicylic acid di-arginine [Sulfosalicylic acid diarginine]
Viscosity (biosimilar AVASTIN®; 228 ± 5 mg/mL mAb, agent […], 25° C., pH 7.0): 81.6 ± 1.7 cP
Viscosity (biosimilar RITUXAN®; 220 mg/mL RITUXAN (footnote *), 0.25M agent, pH 7.0): 68.3 ± 0.8
Viscosity (biosimilar RITUXAN®; [5]): 44.1 ± 0.1
Viscosity reduction (REMICADE® [1]; 0.25M agent vs PB, Table 17): about 29 fold
Viscosity (REMICADE® [1]; [6]): 27.1 ± 0.3 cP
Viscosity (REMICADE® [1]; [7]): 55.9 ± 1.8 cP

Viscosity (biosimilar RITUXAN®; 188 mg/mL mAb, […] agent): 40.7 ± 0.5 cP
Viscosity (biosimilar RITUXAN®; 242 mg/mL mAb, […] agent): 63.0 ± 3.5 cP
Viscosity (HERCEPTIN®; 232 mg/mL HERCEPTIN, […] agent): 60.1 ± 0.6 cP
Compound: CSA-Na-Ornidazole

Viscosity (biosimilar ERBITUX®; 179 mg/mL mAb, 0.10M agent): 37.4 ± 0.9 cP
Viscosity (biosimilar ERBITUX®; 199 mg/mL mAb, 0.10M agent): 54.8 ± 0.2 cP
Viscosity (biosimilar AVASTIN®; 200 mg/mL mAb, agent 0.10M, 25° C.): 27.9 ± 0.6 cP
Viscosity (biosimilar AVASTIN®; 219 mg/mL mAb, agent 0.10M, 25° C.): 58.6 ± 1.6 cP
Viscosity (biosimilar AVASTIN®; 228 mg/mL mAb, agent 0.10M, 25° C.): 71.8 ± 0.9 cP
Viscosity (biosimilar RITUXAN®; 210 mg/mL mAb, 0.10M agent): 67.1 ± 1.1 cP
Compound: CCN(CC)CCCC(C)Nc1ccnc2cc(Cl)ccc12 (stereo not drawn) [Chloroquine Phosphate, reference compound]

Viscosity (biosimilar ERBITUX®; 190 mg/mL mAb, […] agent): 120 ± 2 cP
Viscosity (biosimilar AVASTIN®; 198 mg/mL mAb, agent […], 25° C.): 301 ± 5 cP
Viscosity (biosimilar RITUXAN®; 222 mg/mL mAb, […] agent): 198 ± 17 cP
Compound: CO/N=C(\C(=O)N[C@@H]1C(=O)N2C(C(=O)O)=C(CSc3nc(=O)c(=O)[nH]n3C)CS[C@H]12)c1csc(N)n1 [Ceftriaxone sodium salt, reference compound]

Compound: Cl.N=C(N)NCCC[C@H](N)C(=O)O [Arginine•HCl, arginine HCl, reference compound]
Viscosity (VECTIBIX®; 233 ± 4 mg/mL VECTIBIX): 24.7 ± 1.3 cP
Viscosity (VECTIBIX®; 252 ± 3 mg/mL VECTIBIX): 36.2 ± 1.0 cP
Viscosity (biosimilar ERBITUX®; [3]): 45.3 ± 0.5 cP
Fold Reduction (biosimilar ERBITUX®; [3]): 24.9 fold
Viscosity (TYSABRI®; 230 ± 2 mg/mL TYSABRI, 0.25M agent, pH 7.0): 37.0 ± 0.1 cP
Viscosity (TYSABRI®; 237 ± 4 mg/mL TYSABRI, 0.25M agent, pH 7.0): 52.3 ± 4.5 cP
Viscosity (TYSABRI®; 276 ± 8 mg/mL TYSABRI, 0.25M agent, pH 7.0): 97.2 ± 5.7 cP
Viscosity (biosimilar AVASTIN®; [4]): 83.2 ± 2.8 cP
Viscosity (biosimilar AVASTIN®; 200 ± 5 mg/mL mAb, pH 7.0, 25° C., [Salt] 0.3 M of anion, C & P viscometer): 71.8 ± 2.2 cP
Viscosity (biosimilar RITUXAN®; 220 mg/mL RITUXAN (footnote *), 0.45M agent, pH 7.0): 86.8 ± 1.8
Viscosity (biosimilar RITUXAN®; 202 ± 2 mg/mL RITUXAN, 0.45M agent, pH 7.0): 46.9 ± 0.8
Viscosity (REMICADE® [1]; [6]): 110 ± 1 cP
Viscosity (REMICADE® [1]; [7]): 486 ± 34 cP
Viscosity (HERCEPTIN®; 216 ± 0 mg/mL HERCEPTIN, 0.25M salt, pH 7.0): 44.8 ± 1.1 cP
Viscosity (HERCEPTIN®; 254 ± 3 mg/mL HERCEPTIN, 0.25M salt, pH 7.0): 116 ± 24 cP
Viscosity (HERCEPTIN®; 270 ± 6 mg/mL HERCEPTIN, 0.25M salt, pH 7.0): 179 ± 17 cP

% binding (ELISA) (antigen; day 0): 105 ± 14%
% binding (ELISA) (antigen; day 30): 98 ± 12%
% binding (ELISA) (antigen; day 100): 101 ± 5%
Compound: REMICADE ®: infliximab, mAb against TNF-α; here concentrated solution formulated with 0.25 M CSAA
% Monomer (SEC) (REMICADE® [2]): 98.9 ± 0.1%

Viscosity (TYSABRI®; 233 mg/mL TYSABRI, […] agent): 75.8 ± 0.4 cP
Viscosity (biosimilar AVASTIN®; 189 mg/mL mAb, agent […], 25° C.): 45.1 ± 0.9 cP
Viscosity (HERCEPTIN®; 230 mg/mL HERCEPTIN, […] agent): 69.9 ± 2.3 cP
Compound: O=C([O-])CCCC[C@@H]1SC[C@@H]2NC(=O)N[C@@H]21.[Na+] [Biotin-Na]

Compound: Colistin sulfate salt [reference compound]
Viscosity (biosimilar ERBITUX®; 203 mg/mL mAb, […] agent): 138 ± 4 cP
Viscosity (biosimilar AVASTIN®; 240 mg/mL mAb, agent […], 25° C.): 261 ± 58 cP
Viscosity (biosimilar RITUXAN®; 230 mg/mL mAb, […] agent): 228 ± 19 cP

Compound: CC1(C)C2CCC1(CS(=O)(=O)O)C(=O)C2.Nc1ccncc1 (stereo not drawn) [CSA-4-aminopyridine]
Viscosity (biosimilar AVASTIN®; 229 mg/mL mAb, […] agent, pH 7.0, 25° C., microfluidic): 86.4 ± 1.1 cP
Viscosity (biosimilar RITUXAN®; 195 mg/mL mAb, […] agent): 47.0 ± 1.4 cP
Viscosity (biosimilar RITUXAN®; 233 mg/mL mAb, […] agent): 66.5 ± 0.8 cP

Viscosity (biosimilar ERBITUX®; 230 mg/mL mAb, […] agent): 35.9 ± 0.3 cP
Viscosity (TYSABRI®; 228 mg/mL TYSABRI, […] agent): 45.1 ± 1.5 cP
Viscosity (biosimilar AVASTIN®; 188 mg/mL mAb, agent […], 25° C.): 40.8 ± 0.9 cP
Viscosity (biosimilar AVASTIN®; 222 mg/mL mAb, agent […], 25° C.): 65.8 ± 0.8 cP
Viscosity (biosimilar RITUXAN®; 195 mg/mL mAb, […] agent): 33.4 ± 1.2 cP
Viscosity (biosimilar RITUXAN®; 222 mg/mL mAb, […] agent): 46.2 ± 1.1 cP
Viscosity (REMICADE® [1]; 174 mg/mL REMICADE, […] agent): 23.4 ± 0.2 cP
Viscosity (HERCEPTIN®; 222 mg/mL HERCEPTIN, […] agent): 41.8 ± 0.6 cP
Compound: CCN(CC)CCOC(=O)c1ccc(N)cc1 [Procaine HCl, reference compound]

Viscosity (biosimilar AVASTIN®; 219 mg/mL mAb, […] agent, pH 7.0, 25° C., microfluidic): >150 cP
Viscosity (biosimilar RITUXAN®; 191 mg/mL mAb, […] agent): 80.3 ± 16.0 cP
Compound: Ethane disulfonate-diTris-2Na

Viscosity (biosimilar ERBITUX®; 176 mg/mL mAb, […] agent): 103 ± 3 cP
Viscosity (biosimilar ERBITUX®; 199 mg/mL mAb, […] agent): 178 ± 2 cP
Viscosity (biosimilar RITUXAN®; 205 mg/mL mAb, […] agent): 130 ± 2 cP
Compound: CC[C@@H](C(N)=O)N1CCCC1=O [Levetiracetam, reference compound]

Compound: CN1[C@@H]2C[C@@H](OC(=O)[C@H](CO)c3ccccc3)C[C@H]1[C@@H]1O[C@@H]12 [Scopolamine HBr, reference compound]
Viscosity (biosimilar ERBITUX®; 173 mg/mL mAb, […] agent): 23.4 ± 0.6 cP
Viscosity (biosimilar AVASTIN®; 210 mg/mL mAb, agent […], 25° C.): 35.3 ± 1.1 cP
Viscosity (biosimilar AVASTIN®; 223 mg/mL mAb, agent […], 25° C.): 64.0 ± 0.8 cP
Viscosity (biosimilar AVASTIN®; 238 mg/mL mAb, agent […], 25° C.): 87.8 ± 1.5 cP
Viscosity (biosimilar RITUXAN®; 197 mg/mL mAb, […] agent): 42.3 ± 1.0 cP
